The source of these data is BindingDB's records for patent US20230312583 (Shengke Pharmaceuticals (Jiangsu), 2023).

For orientation: IC50 means the concentration that inhibits the measured activity by half. The low end stands for higher potency, the high end for lower potency.

The structures appear in SMILES notation.

This assay deals with Mast/stem cell growth factor receptor Kit (Homo sapiens, UniProt P10721). Nature of the assay: Biological Assay. On the procedure:
Reactions were carried out in the presence of 10 μM ATP. […] The radioactive phosphorylated substrate remaining on the filter paper was measured.

Sequence of Mast/stem cell growth factor receptor Kit (P10721 whole entry): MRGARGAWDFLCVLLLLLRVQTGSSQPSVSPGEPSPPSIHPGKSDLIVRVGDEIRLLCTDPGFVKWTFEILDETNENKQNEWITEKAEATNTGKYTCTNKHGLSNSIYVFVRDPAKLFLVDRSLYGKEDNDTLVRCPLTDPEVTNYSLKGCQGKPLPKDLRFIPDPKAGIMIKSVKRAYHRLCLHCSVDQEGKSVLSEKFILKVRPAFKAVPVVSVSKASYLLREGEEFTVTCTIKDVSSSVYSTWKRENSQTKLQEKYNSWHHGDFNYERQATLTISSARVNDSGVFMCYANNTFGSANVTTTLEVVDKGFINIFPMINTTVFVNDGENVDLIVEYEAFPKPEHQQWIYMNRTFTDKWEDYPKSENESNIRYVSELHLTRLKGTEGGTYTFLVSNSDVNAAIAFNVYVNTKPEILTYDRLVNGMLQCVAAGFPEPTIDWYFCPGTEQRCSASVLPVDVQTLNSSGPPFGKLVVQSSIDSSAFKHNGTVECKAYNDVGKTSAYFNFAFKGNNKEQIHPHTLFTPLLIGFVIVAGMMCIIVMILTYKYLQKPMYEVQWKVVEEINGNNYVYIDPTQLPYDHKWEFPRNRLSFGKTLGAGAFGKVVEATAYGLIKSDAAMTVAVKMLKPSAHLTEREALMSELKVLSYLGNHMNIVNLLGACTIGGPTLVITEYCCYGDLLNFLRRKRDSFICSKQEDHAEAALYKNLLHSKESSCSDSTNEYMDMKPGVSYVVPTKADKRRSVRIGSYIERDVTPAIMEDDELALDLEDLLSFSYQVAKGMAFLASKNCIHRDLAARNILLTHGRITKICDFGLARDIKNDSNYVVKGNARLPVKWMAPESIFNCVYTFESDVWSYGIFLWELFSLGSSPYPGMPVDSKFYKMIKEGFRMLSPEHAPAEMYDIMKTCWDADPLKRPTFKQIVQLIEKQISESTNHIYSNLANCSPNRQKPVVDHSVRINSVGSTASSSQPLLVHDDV

`CC#CCOc1cc(Nc2ncc3ccc4ncn(C(C)C)c4c3n2)ncc1N1CCNCC1` [US20230312583, Compound I-13] gave an IC50 of 93.2 nM.
